From US4396598A, “Triiodoisophthalamide X-ray contrast agent” (Mallinckrodt, Inc., priority 1982, dated 1983) come the findings set out here.

Series [1] in a line: Radiographic observations, whole body radiographs in mouse after intravenous administration. It counts as in vivo. The following applies: male mouse, i.v. (lateral tail vein), 10,000 mg I/kg (40% I solution), immediately and 5 minutes after administration. The method, then: A male mouse (23 g) was anesthetized with sodium pentobarbital (40 mg/kg, i.p.; Nembutal®, Abbott Laboratories). The N,N'-bis(2,3-dihydroxypropyl)-5-N-(2-hydroxyethyl)glycolamido-2,4,6-triiodoisophthalamide prepared by method of Example 1, was administered at a dose of 10,000 mg I/kg (40% I solution) via a lateral tail vein of the mouse at a rate of 1 ml/minute.

Series [2] is described as follows: Radiographic observations, lateral radiograph of head and thorax in rat after intracisternal injection. It counts as in vivo. The conditions noted are these: male rat, 137 mg I/kg (40% I solution), immediately after administration.
The test system of the next series is Swiss mice. Put plainly: Acute Intravenous Toxicity in Mice. It counts as in vivo. The conditions noted are these: i.v., 40% I, seven day observation. The procedure:
(§1) The following pharmacological studies were conducted on N,N'-bis(2,3-dihydroxypropyl)-5-N-(2-hydroxyethyl)glycolamido-2,4,6-triiodoisophthalamide (PRODUCT), prepared by the method of Example 1.
A solution of the PRODUCT (40% I) was injected into the lateral tail vein of young adult male and female Swiss mice at a rate of 1 ml/min. […]

Series [3] can be described thus: Acute Intracisternal Toxicity in Rats. It counts as in vivo, Sprague Dawley rats. The conditions noted are these: rat, in vivo, concentration 450, two day observation, 95% confidence limits 1,853-2,936. The procedure: as §1
(§2) The technique described by Melartin, et al. (Invest. Radiol. 5: 13-21, 1970) was utilized to evaluate lethal effects of a solution of the PRODUCT after injection into cerebrospinal fluid at the cisterna magna. Young adult male Sprague Dawley rats were used. After dosing, the animals were housed individually and observed for immediate reactions and periodically for a two day observation period. The LD50 value was calculated by the method of Litchfield and Wilcoxin (J. Pharmacol. Exp. Therap. 96: 99-113, 1949) with the following results: […]

The test system of another series is Sprague Dawley rats. Put plainly: Acute Intracisternal Toxicity in Rats. It counts as in vivo. The following applies: concentration 450, two day observation, 95% confidence limits 874-1,385. The procedure:
as §1, §2

In the case of `O=C(NCC(O)CO)c1c(I)c(C(=O)NCC(O)CO)c(I)c(N(CCO)C(=O)CO)c1I` (centres unmarked) [PRODUCT, N,N'-Bis(2,3-dihydroxypropyl)-5-N-(2-hydroxyethyl)glycolamido-2,4,6-triiodoisophthalamide], the “opacification on whole body radiographs” value in series [1] was “opacification of the liver and cardiovascular and renal excretory systems”. In addition, in series [2], the “visualization on lateral radiograph of the head and thorax” value was “good visualization of the cisterna magna, basal cisterns, and cervical subarachnoid space”. For the same compound, the “NUMBER OF MORTALITIES/NUMBER DOSED” value was 0/8 in the series with Swiss mice (18,500 mg I/kg (39,220 mg/kg)), 5/8 in the series with Swiss mice (20,000 mg I/kg (42,400 mg/kg)) and 10/10 in the series on Swiss mice (21,500 mg I/kg (45,580 mg/kg)). Moreover, the LD50 (usually the dose expected to kill half of the subjects tested) in the series with Swiss mice (mice) is recorded as “about 20,000 mg I/kg”. The compound also came in with an LD50 at 48 h in series [3] of 2330 mg/kg. Besides, in the series with Sprague Dawley rats, the “LD50 (95% Confidence Limits)” value is on record as 1,100 mg I/kg.
